These results are taken from US6251940A, “Inflammatory cell inhibitors” (British Biotech Pharmaceuticals Ltd., priority 1998, dated 2001).

Experiment [1] has as its system Human PBMCs. Description: Inhibition of mitogen (PWM)-induced lymphocyte proliferation of PBMCs. It counts as cell-based. Conditions: PBMC, PWM 2.5 μg/ml, 48 hrs, tritiated thymidine, read-out: IC50, PBMCs stimulated with PWM. The procedure:
Inhibition of Mitogen-induced Lymphocyte Proliferation
The compounds of examples 1, 2, 3, 6, 19, 39, 40 and 43 above were tested for their effects on the proliferation of peripheral blood mononuclear cells (PBMCs) in vitro. The PBMCs were activated with Pokeweed mitogen (PWM), a potent activator of lymphocytes and monocytes which leads to B and T lymphocyte proliferation.
Human PBMCs (2×10^4 cells/well), purified from whole blood by centrifugation through ficoll/hypaque, were incubated with PWM (2.5 μg/ml) and compounds 1 and 2 at a range of dilutions in 96 well microtitre plates for 48 hrs at 37° C. in a 5% CO2 incubator. DMSO was run in each assay as a vehicle control. 0.5 μCuries of tritiated thymidine in 40 μl (Amersham) were added to each well during the final 18 hrs. The cells were then harvested on glass fibre pads using a Tomtech cell harvester and, after adding scintillant to the pad (Meltilex) they were placed in a Wallac MicroBeta plate counter. The results obtained are in counts per minute and reflect the level of tritiated thymidine incorporation into the cells and therefore the level of cell proliferation. The percentage proliferation in test wells compared to control wells was calculated and the inhibition curves plotted. The IC50 values were calculated from the inhibition curves.

The subject of experiment [2] is Human PBMCs. Description: Inhibition of antigen (PPD)-induced T lymphocyte proliferation of PBMCs. It counts as cell-based. The settings on record: PBMC, PPD 1 μg/ml, 72 hrs, tritiated thymidine, read-out: IC50, PBMCs stimulated with PPD.
Experiment [3] deals with TNF. The experiment in a line: Inhibition of production of TNF, PWM-activated PBMCs (ELISA). Conditions: 48 hrs. It counts as cell-based, Human. On the procedure: (§1) Inhibition of Production of TNF
(§2) The compound of example 3 above was tested for its effect on the production of the pro-inflammatory cytokine TNF. TNF is released from various cells (monocytes and B lymphocytes) following activation by mitogen or antigen. The production of this inflammatory mediator in the supernatant of activated PBMCs was measured by ELISA.
(§3) Human PBMCs (2-5×10^6 cells/well), purified from whole blood by centrifugation through ficoll/hypaque, were incubated with either PWM (2.5 μg/ml) or PPD (1 μg/ml) and compound example 3 at 10 μM in a 24 well microtitre plates for 48 hrs at 37° C. in a CO2 incubator. DMSO was run in each assay as a vehicle control. Supernatant was removed after 48 hrs and microfuged at 10,000 rpm for 2 minutes. Supematant was removed, aliquotted and stored at -70° C. until tested.

Experiment [4] concerns TNF. The experiment in a line: Inhibition of production of TNF, PPD-activated PBMCs (ELISA). Conditions: 48 hrs. It counts as cell-based, Human. The procedure: as §1, §2, §3
Background: In an ELISA, binding on a coated surface is turned into a signal by an enzyme label.

For experiment [5], the system named is Human PBMCs. Description: Inhibition of anti-CD3-induced T lymphocyte proliferation of PBMCs. It counts as cell-based. Conditions: 48 hrs; for Inhibition of cell proliferation (in words), anti-CD3: range of dilutions. The procedure: Inhibition of Anti-CD3-induced T Lymphocyte Activation and Proliferation
(§4) The compounds of examples 1, 6, 19, 39, 40 and 43 above were tested for its effects on anti-CD3-driven proliferation of peripheral blood mononuclear cells (PBMCs) in vitro. The PBMCs were activated with anti-CD3 antibody which directly activates T lymphocytes via the T cell receptor CD3 component, although other cells do contribute to T cell proliferation by co-stimulation and growth factor production. Human PBMCs (5×10^4cells/well), purified from whole blood by centrifugation through ficoll/hypaque, were incubated in monoclonal anti-CD3 antibody-coated wells (5 μg/ml) and compound 1 at a range of dilutions in a 96 well microtitre plate for 48 hrs at 37° C. in a 5% CO2 incubator. DMSO was run in each assay as a vehicle control. 0.5 μCuries of tritiated thymidine in 40 μl (Amersham) were added to each well during the final 18 hrs. The cells were then harvested on glass fibre pads using a Tomtech cell harvester and, after adding scintillant to the pad (Meltilex) they were placed in a Wallac MicroBeta plate counter. The results obtained are in counts per minute and reflect the level of tritiated thymidine incorporation into the cells and therefore the level of cell proliferation. The percentage proliferation in test wells compared to control wells was calculated. The results were plotted and the IC50 value calculated.

A further experiment relates to TNF alpha. Description: Inhibition of TNF production in PWM-activated whole blood. Conditions: 10 μM, PWM-activated whole blood diluted 1/5, 24 hours; for TNF alpha: vehicle 1031 pg/ml. It counts as cell-based. The procedure:
as §3
In a modification of the above procedure, the compounds of Examples 19 and 40 were tested at 10 μM for inhibition of TNF production in PWM-activated whole blood diluted 1/5 in RPMI containing 1% nutridoma. The supernatants were tested after 24 hours of culture.

For another experiment, the system named is CD69. The experiment in a line: CD69 expression on T cells activated by anti-CD3 (FACS). It counts as cell-based, Human. Conditions: 4 hrs treatment; untreated cells 68%. The procedure:
as §4, with “The results obtained are in counts per minute and reflect the level of tritiated thymidine incorporation into the cells and therefore the level of cell proliferation.” left out
CD69 is a membrane marker of T cell activation. The level of CD69 expression on the membranes of T cells activated by anti-CD3 was therefore measured by fluorescence activated cell (FACS) flow cytometry.

Experiment [6] deals with Experimental Autoimmune Neuritis. Description: Experimental Autoimmune Neuritis animal model. The settings on record: 100 mg.kg^-1 ip uid, day 1 to 14; day 15 post-inoculation; groups of 9. It counts as in vivo, Male Lewis rats.

A word on the IC50: it is the midpoint of a concentration-inhibition curve.

For the molecule `C=CC[C@H](C(=O)NO)[C@@H](CC(C)C)C(=O)N[C@@H](Cc1ccccc1)C(=O)OC(C)C` [Example 3, 2S-(3S-Hydroxycarbamoyl-2R-isobutyl-hex-5-enoylamino)-3-phenylpropionic acid isopropyl ester], the IC50 with Human PBMCs [1] stood at 2400 nM; with Human PBMCs [2], 1800 nM. In addition, in the experiment on TNF [3] (10 μM, dmso 1390 pg/ml), the “TNF, ACTIVATED PWM” value turned out to be 495 pg/mL. In addition, the inhibition at 10 µM in the experiment with TNF [3] (Homo sapiens, PBMC, versus dmso, read-out: reduction of the level of TNF production, PWM system) was 64%; with TNF [4] (Homo sapiens, PBMC, versus dmso, read-out: reduction of the level of TNF production, PPD system), 70%. For the same molecule, the “TNF, ACTIVATED PPD” value in the experiment with TNF [4] (10 μM, dmso 50 pg/ml) is 15 pg/mL.
Regarding `C=CC[C@H](C(=O)NO)[C@@H](CC(C)C)C(=O)N[C@@H](Cc1ccccc1)C(=O)OCC` [Example 2, 2S-(3S-Hydroxycarbamoyl-2R-isobutyl-hex-5-enoylamino)-3-phenylpropionic acid ethyl ester], the IC50 with Human PBMCs [1] was determined as 4800 nM.
`C=CC[C@H](C(=O)NO)[C@@H](CC(C)C)C(=O)N[C@H](C(=O)OC1CCCC1)c1ccccc1` [Example 40, 2S-(3S-Hydroxycarbamoyl-2R-isobutyl-hex-5-enoylamino)-2-phenylethanoic acid cyclopentyl ester]: the “Inhibition of cell proliferation (in words), anti-CD3” value (shortened to “Inhibition of cell proliferation”) in the experiment on Human PBMCs [5] was “inhibited cell proliferation in a dose related fashion”. In addition, in the experiment with TNF alpha, the “TNF production (in words)” value was “reduced the level of TNF production” and the TNF alpha was 600 pg/mL.
Consider `C=CC[C@H](C(=O)NO)[C@@H](CC(C)C)C(=O)N[C@@H](COC(C)(C)C)C(=O)OC1CCCC1` [Example 39, 3-tert-Butoxy-2S-(3S-hydroxycarbamoyl-2R-isobutyl-hex-5-enoylamino)-propionic acid cyclopentyl ester], for which, in the experiment with Human PBMCs [5], the “Inhibition of cell proliferation” value is on record as “inhibited cell proliferation in a dose related fashion”.
With `CC(C)C[C@H](CC(=O)NO)C(=O)N[C@@H](Cc1ccccc1)C(=O)OC(C)C` [Example 6, 2S-(2R-Hydroxycarbamoylmethyl-4-methyl-pentanoylamino)-3-phenyl-propionic acid isopropyl ester], the “Inhibition of cell proliferation” value in the experiment with Human PBMCs [5] is listed as “inhibited cell proliferation in a dose related fashion”.
As for `C=CC[C@H](C(=O)NO)[C@@H](CC(C)C)C(=O)N[C@@H](Cc1ccccc1)C(=O)OC` [Example 1, 2S-(3S-Hydroxycarbamoyl-2R-isobutyl-hex-5-enoylamino)-3-phenylpropionic acid methyl ester], the “expression of CD69 (% of T cells)” value in the experiment on CD69 is 48%. The IC50 was 4700 nM in the experiment on Human PBMCs [1]; 2000 nM with Human PBMCs [2]; 2100 nM in the experiment with Human PBMCs [5] (Homo sapiens, PBMC, anti-CD3 antibody-coated wells 5 μg/ml, tritiated thymidine, read-out: IC50, PBMCs stimulated with ANTI-CD3). Besides, the “Inhibition of cell proliferation” value with Human PBMCs [5] is reported as “inhibited cell proliferation in a dose related fashion”.
With `C=CC[C@H](C(=O)NO)[C@@H](CC(C)C)C(=O)N[C@@H](Cc1ccccc1)C(=O)OC1CCCC1` [Example 19, 2S-(3S-Hydroxycarbamoyl-2R-isobutyl-hex-5-enoylamino)-3-phenylpropionic acid cyclopentyl ester], the “reduction in mean clinical score compared to vehicle group” value in experiment [6] was 93%. In the experiment with Human PBMCs [2], the IC50 was determined as 1100 nM. In addition, the “Inhibition of cell proliferation” value in the experiment on Human PBMCs [5] is reported as “inhibited cell proliferation in a dose related fashion”. Also, in the experiment with TNF alpha, the “TNF production (in words)” value was “reduced the level of TNF production” and the TNF alpha was 489 pg/mL.
`CC(C)C[C@@H](C(=O)NC(C(=O)OC1CCCC1)c1ccccc1)[C@H](O)C(=O)NO` (stereo partly drawn) [Example 43, 2-[2R-(S-Hydroxy-hydroxycarbamoyl-methyl)-4-methyl-pentanoylamine]-2-phenyl-ethanoic acid cyclopentyl ester]: the “Inhibition of cell proliferation” value with Human PBMCs [5] is listed as “inhibited cell proliferation in a dose related fashion”.
